According to patent US20180027807A1, “Vermin Control Compositions” (priority 2013, published 2018):
Read-outs that look alike come from different tables or passages of the source.

Experiments:
[1] = crystalline form, 7 days, cited from earlier work
[2] = cited from earlier work
[3] = Accelerated stability study of cholecalciferol in DMSO/ethanol formulations; format: physicochemical; details: across all formulations, 25° C.±2° C./60% RH±5%
Procedure: The stability of cholecalciferol in the chosen penetration enhancer is an important consideration when analysing the physical properties of the formulation. An unstable formulation which causes cholecalciferol to degrade would result in delivery of sub-lethal doses. […] Conversely, cholecalciferol solutions in surfactants and oils are said to be stable over long periods at 40° C. In order to assess the stability of cholecalciferol when combined with the chosen penetration enhancers an accelerated stability study was performed. In total, 6 formulations with varying types and concentration of penetration enhancers were stored in an accelerated stability cabinet at 25° C.±2° C./60% RH±5%. Each formulation contained 10% (w/v) cholecalciferol. Each formulation was made up a day before the intended start date of the stability study and left in a water bath/shaker overnight at 25° C. to allow adequate time for the cholecalciferol to dissolve. Amber bottles were used to prevent photo-degradation and parafilm was used to seal round the screw lid to prevent oxidative degradation from the air. At each sampling point the lid was removed and 200 μl taken; the sample was serially diluted 8 times (256-fold) before analysis with HPLC.
All formulations contain 10% (w/v) cholecalciferol.

C=C1CC[C@H](O)C/C1=C/C=C1\CCC[C@]2(C)[C@@H]([C@H](C)CCCC(C)C)CC[C@@H]12 [cholecalciferol]
decrease in potency ([1]; 40° C./45% RH): 35%
decrease in potency ([1]; 40° C./85% RH): 85%
Solubility (class) ([2]; cholecalciferol in ethanol, classification taken from the British Pharmacopeia): freely soluble (a solubility between 1-10 ml/g is classed as freely soluble)
solubility in water ([2]; cholecalciferol in water, stated): practically insoluble
degradation of cholecalciferol ([3]; during the first 10 days): 16.83%
degradation of cholecalciferol (drop in potency) ([3]; over 50 days, 10% (w/v) in DMSO/ethanol ratios, amber bottles): 27.11%
